Data taken from US20220362386A1, “LIQUID COMPOSITIONS COMPRISING A LEVODOPA AMINO ACID CONJUGATE AND USES THEREOF” (NeuroDerm, Ltd., priority 2019, published 2022).
Structures can show the parent of a compound that is named as a salt.

Experiments:
Caco-2 cells [1] = assay: In-vitro absorption, Caco-2 A-B permeability; assay type: in vitro ADME, human; conditions: Caco-2 A-B; both with and without verapamil
Protocol: Conditions may be adjusted when necessary.
D denotes donor and R is receiver. […] V is the volume of the donor or receiver.
The test was performed with and without verapamil, which is a permeation inhibitor, and the results are presented in Tables 22 (without verapamil) and 34 (with verapamil).

Caco-2 cells [2] = assay: in vitro; conditions: Caco-2

**Q.** For `N[C@@H](CSC[C@H](NC(=O)[C@@H](N)Cc1ccc(O)c(O)c1)C(=O)O)C(=O)O` (single isomer, unassigned; peak 2) [LD-LA2 TFA salt, Levodopa Lanthionine Peak 2 TFA Salt], which “mean permeability compared with the other compounds (in words)” value (Caco-2 cells [1]) is on record?
**A.** The value was “highest mean permeability”.

**Q.** And the “mean permeability compared with the other compounds (in words)” value (Caco-2 cells [2])?
**A.** The value was “highest mean permeability”.
